Results on two molecules are retold here after paper PMC9149975, “The diaryl-imidazopyridazine anti-plasmodial compound, MMV652103, exhibits anti-breast cancer activity” (EXCLI Journal, 2022).

The subject of one assay is MCF7 cells. As to the kind of experiment: GSH-Glo Glutathione assay. Type of assay: cell-based, human. The settings on record: MCF7, 24 h; MMV652103 ½ IC50 and IC50, doxorubicin IC50 (9.84 nM). How it is done: The increase in ROS levels results in a decrease in the levels of antioxidants. To confirm the presence of intracellular ROS, the levels of the antioxidant, glutathione (GSH), was measured using the GSH-Glo™ Glutathione assay kit (V6911, Promega, Wisconsin, USA), according to the manufacturer's instructions. Briefly, cells (2500-4500 cells per well) were seeded in opaque 96 well plates. Cells were treated for 24 h with either vehicle or MMV652103. Thereafter, the cell culture medium was removed and 100 μl of 1X GSH-Glo™ Reagent (prepared using Luciferin-NT substrate and Glutathione S-Transferase each diluted 1:100 in GSH-Glo™ Reaction Buffer) was added to each well. The plate was then mixed briefly on a shaker and incubated for 10 min at RT. Thereafter, 100 μl reconstituted Luciferin Detection Reagent was added to each well. The plate was then incubated for 15 min RT in order to stabilize the luminescence signal. The plate was read using the GloMax® Explorer Multimode plate reader (Promega, Wisconsin, USA).

For a further assay, the system named is MCF7 tumors. As to the kind of experiment: Chick embryo CAM xenograft: tumor weight and metastasis. The class given is in vivo. The note with it: 25 μM, every 48 h E10-E16, weighed E18. The protocol: All studies and procedures were conducted with prior approval of the Animal Ethics Committee of the University of Cape Town (FHS AEC REF NO:016/025) in accordance with the South African National Standard (SANS 10386:008) for the Care and Use of Animals for Scientific Purposes (SABS, 2015[71]), and guidelines from the Department of Health (2015[21]). Fertilized White Leghorn eggs were incubated at 37.5 °C with 50 % relative humidity for 9 days. At stage E9, the chorioallantoic membrane (CAM) was dropped by drilling a small hole through the eggshell into the air sac and a 1 cm^2 window was cut in the eggshell above the CAM. Cultured MCF7 cells were detached with trypsin, washed with complete medium and suspended in PBS. An inoculum of MCF7 cells was grafted onto the CAM of each E9 egg (21 eggs were used for each condition) and at E10, tumors were detectable. MCF7 tumors were treated every 48 h (E10, E12, E14, E16) by dropping 100 μl of vehicle (0.25 % DMSO in PBS), a reference compound (Paclitaxel), or MMV652103, onto the tumour. At E18 the upper portion of the CAM was removed, transferred to PBS and the tumors cut away from normal CAM tissue and weighed. A one-way ANOVA analysis with post-tests was done. In parallel, a 1 cm^2 portion of the lower CAM was collected to evaluate the number of metastatic cells. The relative amount of metastasis was calculated as follows: Tumor cells were grafted onto the upper chorioallantoic membrane (CAM) and during metastasis the cells invade the epithelium and basement membrane of the upper CAM and move through connective tissue into the vasculature into the lower CAM. The cells in the lower CAM are then harvested and genomic DNA is extracted and analyzed by qPCR with specific primers for Alu sequences which are only found in higher primates i.e. it allows for the distinction between human tumor cells and the host chick cells. Statistical analysis was directly performed on data from the Bio-Rad CFX Manager 3.1 software.

With `COc1cccc2c1C(=O)c1c(O)c3c(c(O)c1C2=O)C[C@@](O)(C(=O)CO)C[C@@H]3O[C@H]1C[C@H](N)[C@H](O)[C@H](C)O1` [Doxorubicin, reference compound], in the assay with MCF7 cells, the “levels of GSH” value is “significant decrease”.

In turn, `CC(=O)O[C@H]1C(=O)[C@@]2(C)[C@H]([C@H](OC(=O)c3ccccc3)[C@]3(O)C[C@H](OC(=O)[C@H](O)[C@@H](NC(=O)c4ccccc4)c4ccccc4)C(C)=C1C3(C)C)[C@]1(OC(C)=O)CO[C@@H]1C[C@@H]2O` [Paclitaxel, reference compound] gave a tumor weight reduction in the assay on MCF7 tumors of 28.22%.
